This is an account of results in patent publication US20250215030A1, “STAT MODULATORS AND USES THEREOF” (Recludix Pharma, Inc., priority 2022, published 2025).

Bounds are passed on as bounds.

For one experiment, the target named is T1, pSTAT3 (pY705-STAT3) (Homo sapiens, UniProt P40763).
T1 construct: host or cells: cryopreserved PBMC
T1 sequence (P40763 whole entry): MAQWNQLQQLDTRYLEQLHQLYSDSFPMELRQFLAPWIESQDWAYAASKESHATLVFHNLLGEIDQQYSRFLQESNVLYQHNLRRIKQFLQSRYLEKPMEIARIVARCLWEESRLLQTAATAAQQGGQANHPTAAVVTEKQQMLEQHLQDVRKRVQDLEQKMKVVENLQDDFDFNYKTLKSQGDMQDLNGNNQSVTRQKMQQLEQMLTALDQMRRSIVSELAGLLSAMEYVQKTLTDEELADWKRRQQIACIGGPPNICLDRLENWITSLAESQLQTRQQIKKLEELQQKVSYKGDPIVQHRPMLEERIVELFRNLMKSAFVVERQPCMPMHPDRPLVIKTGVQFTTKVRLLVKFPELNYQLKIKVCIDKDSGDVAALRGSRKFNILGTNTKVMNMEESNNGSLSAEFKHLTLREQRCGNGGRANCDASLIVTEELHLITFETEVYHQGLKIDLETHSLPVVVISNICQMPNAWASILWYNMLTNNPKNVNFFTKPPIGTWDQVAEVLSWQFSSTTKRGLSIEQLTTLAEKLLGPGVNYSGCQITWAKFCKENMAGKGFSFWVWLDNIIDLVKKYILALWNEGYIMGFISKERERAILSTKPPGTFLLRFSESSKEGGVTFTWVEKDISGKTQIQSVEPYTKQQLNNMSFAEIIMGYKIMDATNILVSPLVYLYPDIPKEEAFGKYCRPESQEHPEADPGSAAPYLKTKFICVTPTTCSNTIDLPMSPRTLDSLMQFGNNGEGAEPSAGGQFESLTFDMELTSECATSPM
The experiment in a line: MSD-pSTAT-PBMC Assay (pSTAT3, IL-6 stimulated).
Conditions: not given
It is filed as cell-based. An excerpt:
Cryopreserved Peripheral Blood Mononuclear Cells (PBMC) are from AllCells. Recombinant Human IL-4 and IL-6 are from Peprotech. Mouse monoclonal anti-STAT3 antibody, rabbit monoclonal anti-pY705-STAT3 antibody, rabbit monoclonal Anti-pY641-STAT6 antibody, and lysis buffer are from Cell Signaling Technology (CST). Mouse monoclonal anti-STAT6 antibody is from BioLegend. Assay plates, blocker, and anti-rabbit secondary antibody are from Meso Scale Discovery (MSD).
Cryopreserved PBMCs were thawed out and allowed to recover overnight in IMDM+10% heat-inactivated FBS prior to plating 50,000 (STAT3) or 25,000 (STAT6) cells per well in 96-well U-bottom tissue culture plates. Cells were treated with compound for 3 hrs, then stimulated with 10 ng/mL IL-6 (STAT3) or 1 ng/mL IL-4 (STAT6) for 10 min. Cells were then spun down and washed with ice-cold PBS prior to lysing the cell pellet with 1× lysis buffer (CST) with 1× HALT protease and phosphatase inhibitor cocktail (Thermo). Lysates were transferred to and incubated overnight at 4° C. with shaking in QuickPlex 96-well high bind assay plates (MSD) pre-coated overnight with 30 μL per well of 0.6 μg/mL mouse monoclonal anti-STAT3 antibody (STAT3) or 2 μg/mL mouse monoclonal anti-STAT6 antibody (STAT6) in 1×PBS, and pre-blocked for 1 hour with 3% Blocker-A (MSD). Captured protein in the assay plates were then washed and probed with 25 μL per well of 0.25 μg/ml rabbit monoclonal anti-pY705-STAT3 antibody (STAT3) or 0.18 μg/ml rabbit monoclonal Anti-pY641-STAT6 antibody (STAT6) in 1% Blocker-A for 1 hour at room temperature with shaking, then washed and probed with 25 ul per well of 1 ug/mi Sulfo-TAG Labeled Goat Anti-Rabbit Antibody (MSD) in 1% Blocker-A for 1 hour at room temperature with shaking. Assay plates were then washed and 150 μL of 1× Read Buffer-T (MSD) was added to each well prior to reading on an SQ120 MSD Plate Reader. Assay signal from each sample was subtracted by the signal from unstimulated control wells and normalized to DMSO control wells. IC50 values were calculated using Graph Pad Prism Dose-Response Nonlinear Regression with variable slope. For both pSTAT3 and pSTAT6 A=≤100 nM; B=>100-1000 nM; C=>1000-3000 nM; and D=>3 μM.
As to `CCCOC(=O)[C@@H](C)NP(=O)(Cc1ccc2sc(C(=O)N[C@H]3C[C@@H]4C[C@]4(C)C[C@H]4CC[C@@H](C(=O)N5CC(c6cccnc6)C5)N4C3=O)cc2c1)Oc1ccccc1` (stereo in doubt) [Compound 240, propyl(((2-(((3S,6S,7aR,8aS,9aR)-8a-methyl-5-oxo-3-(3-(pyridin-3-yl)azetidine-1-carbonyl)decahydro-1H-cyclopropa[d]pyrrolo[1,2-a]azocin-6-yl)carbamoyl)benzo[b]thiophen-5-yl)methyl)(phenoxy)phosphoryl)-L-alaninate], the IC50 was under 100 nM.
Still for that read-out and setting: under `CCCOC(=O)[C@@H](C)NP(=O)(Cc1ccc2sc(C(=O)N[C@H]3C[C@H]4C[C@H]4C[C@H]4CC[C@@H](C(=O)N5CC(c6cnccc6C)C5)N4C3=O)cc2c1)Oc1ccccc1` (stereo in doubt) [Compound 242, propyl(((2-(((3S,6S,7aR,8aS,9aR)-3-(3-(4-methylpyridin-3-yl)azetidine-1-carbonyl)-5-oxodecahydro-1H-cyclopropa[d]pyrrolo[1,2-a]azocin-6-yl)carbamoyl)benzo[b]thiophen-5-yl)methyl)(phenoxy)phosphoryl)-L-alaninate] stands under 100 nM; under `CCCOC(=O)[C@@H](C)NP(=O)(Oc1ccccc1)C(F)c1ccc2sc(C(=O)N[C@H]3C[C@@H]4C[C@@H]4C[C@H]4CC[C@@H](C(=O)N5C[C@@H]6[C@H]5CCN6C(C)=O)N4C3=O)cc2c1` (stereo in doubt) [Compound 291, propyl(((2-(((3S,6S,7aS,8aR,9aR)-3-((1S,5S)-2-acetyl-2,6-diazabicyclo[3.2.0]heptane-6-carbonyl)-5-oxodecahydro-1H-cyclopropa[d]pyrrolo[1,2-a]azocin-6-yl)carbamoyl)benzo[b]thiophen-5-yl)fluoromethyl)(phenoxy)phosphoryl)-L-alaninate], under 100 nM.
On the same count and under the same terms, next, `CCCOC(=O)[C@H](C)NP(=O)(Oc1ccccc1)C(F)c1ccc2sc(C(=O)N[C@H]3C[C@H]4C[C@H]4C[C@H]4CC[C@@H](C(=O)N5CC(c6cnccc6N6CCOCC6)C5)N4C3=O)cc2c1` (stereo in doubt) [Compound 409, propyl(((R)-fluoro(2-(((3S,6S,7aS,8aR,9aR)-3-(3-(4-morpholinopyridin-3-yl)azetidine-1-carbonyl)-5-oxodecahydro-1H-cyclopropa[d]pyrrolo[1,2-a]azocin-6-yl)carbamoyl)benzo[b]thiophen-5-yl)methyl)(phenoxy)phosphoryl)-L-alaninate]: under 100 nM; `CCCOC(=O)[C@H](C)N[P@@](=O)(Oc1ccccc1)[C@H](F)c1ccc2sc(C(=O)N[C@H]3C[C@@H]4C[C@@H]4C[C@H]4CC[C@@H](C(=O)N5CC(c6cnccc6N(C)C)C5)N4C3=O)cc2c1` (stereo in doubt) [Compound 415, propyl((R)-((R)-(2-(((3S,6S,7aS,8aR,9aR)-3-(3-(4-(dimethylamino)pyridin-3-yl)azetidine-1-carbonyl)-5-oxodecahydro-1H-cyclopropa[d]pyrrolo[1,2-a]azocin-6-yl)carbamoyl)benzo[b]thiophen-5-yl)fluoromethyl)(phenoxy)phosphoryl)-L-alaninate]: under 100 nM; `CCCOC(=O)[C@H](C)NP(=O)(Oc1ccccc1)[C@@H](F)c1ccc2sc(C(=O)N[C@H]3C[C@H]4C[C@H]4C[C@H]4CC[C@@H](C(=O)N5CC(c6cnccc6N6CC[C@H]6COC)C5)N4C3=O)cc2c1` (stereo in doubt) [Compound 417, propyl(((R)-fluoro(2-(((3S,6S,7aS,8aR,9aR)-3-(3-(4-((S)-2-(methoxymethyl)azetidin-1-yl)pyridin-3-yl)azetidine-1-carbonyl)-5-oxodecahydro-1H-cyclopropa[d]pyrrolo[1,2-a]azocin-6-yl)carbamoyl)benzo[b]thiophen-5-yl)methyl)(phenoxy)phosphoryl)-L-alaninate]: under 100 nM.

The experiment is the same for the next values; noted with them: PBMC, compound 3 hrs, then 10 ng/mL IL-6 for 10 min; MSD pY705-STAT3; read-out: pSTAT3.
As to `CC(C)OC(=O)[C@H](C)N[P@](=O)(Cc1ccc2sc(C(=O)N[C@H]3C[C@@H]4C[C@@H]4C[C@H]4CC[C@@H](C(=O)N5CC(C(=O)N6CCOCC6)C5)N4C3=O)cc2c1)Oc1ccccc1` (single isomer, unassigned) [Example 6], the IC50 was 1000 to 3000 nM.
On the same count and under the same terms, next, `CCCOC(=O)C(C)NP(=O)(Oc1ccccc1)C(F)c1ccc2sc(C(=O)N[C@H]3C[C@@H]4C[C@@H]4C[C@H]4CC[C@@H](C(=O)N5C[C@H]6[C@@H]5CCN6c5cccnc5)N4C3=O)cc2c1` (stereo in doubt) [Compound 297, propyl ((fluoro(2-(((3S,6S,7aS,8aR,9aR)-5-oxo-3-((1S,5S)-2-(pyridin-3-yl)-2,6-diazabicyclo[3.2.0]heptane-6-carbonyl)decahydro-1H-cyclopropa[d]pyrrolo[1,2-a]azocin-6-yl)carbamoyl)benzo[b]thiophen-5-yl)methyl)(phenoxy)phosphoryl)-L-alaninate]: under 100 nM; `CCCOC(=O)C(C)NP(=O)(Oc1ccccc1)C(F)c1ccc2sc(C(=O)N[C@H]3C[C@@H]4C[C@@H]4C[C@H]4CC[C@@H](C(=O)N5C[C@@H]6[C@H]5CCN6c5cccnc5)N4C3=O)cc2c1` (stereo in doubt) [Compound 298, propyl ((fluoro(2-(((3S,6S,7aS,8aR,9aR)-5-oxo-3-((1R,5R)-2-(pyridin-3-yl)-2,6-diazabicyclo[3.2.0]heptane-6-carbonyl)decahydro-1H-cyclopropa[d]pyrrolo[1,2-a]azocin-6-yl)carbamoyl)benzo[b]thiophen-5-yl)methyl)(phenoxy)phosphoryl)-L-alaninate]: under 100 nM.
As for `O=C(OCOP(=O)(Cc1ccc2sc(C(=O)N[C@H]3C[C@@H]4C[C@@H]4C[C@H]4CC[C@@H](C(=O)N5CC(C(=O)N6CCOCC6)C5)N4C3=O)cc2c1)OCOC(=O)OC1CCOCC1)OC1CCOCC1` [Compound 130, ((((2-(((3S,6S,7aS, 8aR,9aR)-3-(3-(morpholine-4-carbonyl)azetidine-1-carbonyl)-5-oxodecahydro-1H-cyclopropa[d]pyrrolo[1,2-a]azocin-6-yl)carbamoyl)benzo[b]thiophen-5-yl)methyl)phosphoryl)bis (oxy))bis (methylene) bis(tetrahydro-2H-pyran-4-yl) bis(carbonate)], the IC50 was over 3000 nM.
With `CC(C)(CO)C(=O)OCOP(=O)(OCOC(=O)C(C)(C)CO)C(F)(F)c1ccc2sc(C(=O)N[C@H]3C[C@@H]4C[C@@H]4C[C@H]4CC[C@@H](C(=O)N5CC(C(=O)N6CCOCC6)C5)N4C3=O)cc2c1` [Compound 132, (((difluoro(2-(((3S,6S,7aS, 8aR,9aR)-3-(3-(morpholine-4-carbonyl)azetidine-1-carbonyl)-5-oxodecahydro-1H-cyclopropa[d]pyrrolo[1,2-a]azocin-6-yl)carbamoyl)benzo[b]thiophen-5-yl)methyl)phosphoryl)bis(oxy)) bis(methylene) bis(3-hydroxy-2,2-dimethyl-propanoate)], the IC50 is over 3000 nM.
In the case of `CC(C)OC(=O)[C@H](Cc1ccccc1)NP(=O)(Cc1ccc2sc(C(=O)N[C@H]3C[C@@H]4C[C@@H]4C[C@H]4CC[C@@H](C(=O)N5CC(C(=O)N6CCOCC6)C5)N4C3=O)cc2c1)Oc1ccccc1` (stereo partly drawn) [Compound 134, isopropyl (((2-(((3S,6S,7aS, 8aR,9aR)-3-(3-(morpholine-4-carbonyl)azetidine-1-carbonyl)-5-oxodecahydro-1H-cyclopropa[d]pyrrolo[1,2-a]azocin-6-yl)carbamoyl)benzo[b]thiophen-5-yl)methyl) (phenoxy)phosphoryl)-L-phenyl-alaninate], the IC50 is 100 to 1000 nM.
